Source: patent publication US20240279236A1, “COMPOUNDS AND METHODS OF TREATING TUBERCULOSIS” (Fimbrion Therapeutics, Inc., priority 2021, published 2024)
pIC50: −log10 of the molar value.

The compounds below were run on WT Mtb Erdman strain (assay: Microplate Alamar Blue Assay (MABA), Mtb growth inhibition). Conditions: Mycobacterium tuberculosis, ERDMAN, 168 h, Middlebrook 7H9 media, 7 days at 37° C. in 5% CO2.
Format: cell-based, Mycobacterium tuberculosis

Structure (SMILES) | pIC50
CCc1nc(NCCCc2cccc(N(C)C)c2)c2cc(C)sc2n1 [Example 253, N-(3-(3-(dimethylamino)phenyl)propyl)-2-ethyl-6-methylthieno[2,3-d]pyrimidin-4-amine] | 5.96
CCc1nc(NCCCc2ccc3ncccc3c2)c2cc(C)sc2n1 [Example 254, 2-ethyl-6-methyl-N-(3-(quinolin-6-yl)propyl)thieno[2,3-d]pyrimidin-4-amine] | 5.82
CCc1nc(NCCCc2cccc(OC(F)(F)F)c2)c2cc(C)sc2n1 [Example 255, 2-ethyl-6-methyl-N-(3-(3-(trifluoromethoxy)phenyl)propyl)thieno [2,3-d]pyrimidin-4-amine] | 6.24
CCc1nc(NCCCc2ccc3c(c2)CCO3)c2cc(C)sc2n1 [Example 256, N-(3-(2,3-dihydrobenzofuran-5-yl)propyl)-2-ethyl-6-methylthieno[2,3-d]pyrimidin-4-amine] | 6.54
CCc1nc(NCCCc2ccc(Cl)cc2)c2cc(C)sc2n1 [Example 257, N-(3-(4-chlorophenyl)propyl)-2-ethyl-6-methylthieno[2,3-d]pyrimidin-4-amine] | 6.85
CCc1nc(NCCCc2ccc3ccccc3c2)c2cc(C)sc2n1 [Example 258, 2-ethyl-6-methyl-N-(3-(naphthalen-2-yl)propyl)thieno[2,3-d]pyrimidin-4-amine] | 6.72
CCc1nc(NCCCc2cc(F)cc(C(F)(F)F)c2)c2cc(C)sc2n1 [Example 259, 2-ethyl-N-(3-(3-fluoro-5-(trifluoromethyl)phenyl)propyl)-6-methylthieno[2,3-d]pyrimidin-4-amine] | 6.25
CCc1nc(NCCCc2ccc(OC)c(F)c2)c2cc(C)sc2n1 [Example 260, 2-ethyl-N-(3-(3-fluoro-4-methoxyphenyl)propyl)-6-methylthieno[2,3-d]pyrimidin-4-amine] | 6.70
CCc1nc(NCCCc2cc3ccccc3s2)c2cc(C)sc2n1 [Example 261, N-(3-(benzo[b]thiophen-2-yl)propyl)-2-ethyl-6-methylthieno[2,3-d]pyrimidin-4-amine] | 6.55
Cc1cc2c(NCCCc3ccc(-c4ccc(OC(F)(F)F)cc4)nc3)nc(C(F)(F)F)nc2s1 [Example 262, 6-methyl-N-(3-(6-(4-(trifluoromethoxy)phenyl)pyridin-3-yl)propyl)-2-(trifluoromethyl) thieno[2,3-d]pyrimidin-4-amine;] | 6.33
Cc1cc2c(NCCCc3ccc(-c4ccc(OC(F)(F)F)cc4)cc3)nc(-c3ccon3)nc2s1 [Example 263, 2-(isoxazol-3-yl)-6-methyl-N-(3-(4′-(trifluoromethoxy)-[1,1′-biphenyl]-4-yl)propyl)thieno [2,3-d]pyrimidin-4-amine] | 7.89
Cc1cc(-c2nc(NCCCc3ccc(-c4ccc(OC(F)(F)F)cc4)cc3)c3cc(C)sc3n2)no1 [Example 264, 6-methyl-2-(5-methylisoxazol-3-yl)-N-(3-(4′-(trifluoromethoxy)-[1,1′-biphenyl]-4-yl)propyl)thieno [2,3-d]pyrimidin-4-amine] | 7.40
CCc1nc(NCCCc2ccc(-c3ccccc3)cc2)c2cc(C)sc2n1 [Example 265, N-(3-([1,1′-biphenyl]-4-yl)propyl)-2-ethyl-6-methylthieno[2,3-d]pyrimidin-4-amine] | 6.82
CCc1nc(NCCCc2ccc(-c3ccc(OC(F)(F)F)cc3)cc2)c2cc(C)sc2n1 [Example 266, 2-ethyl-6-methyl-N-(3-(4′-(trifluoromethoxy)-[1,1′-biphenyl]-4-yl)propyl)thieno [2,3-d]pyrimidin-4-amine] | 7.31
Cc1cc2c(NCCCc3ccc(-c4ccc(OC(F)(F)F)cc4)cc3)nc(C(F)(F)F)nc2s1 [Example 267, 6-methyl-N-(3-(4′-(trifluoromethoxy)-[1,1′-biphenyl]-4-yl)propyl)-2-(trifluoromethyl)-thieno[2,3-d]pyrimidin-4-amine] | 6.52
Cc1cc2c(NCCCc3ccc(-c4ccccc4)cc3)nc(C(F)(F)F)nc2s1 [Example 268, N-(3-([1,1′-biphenyl]-4-yl)propyl)-6-methyl-2-(trifluoromethyl) thieno[2,3-d]pyrimidin-4-amine] | 5.92
CCc1nc(NCCCc2cccc(-c3ccc(OC(F)(F)F)cc3)c2)c2cc(C)sc2n1 [Example 269, 2-ethyl-6-methyl-N-(3-(4′-(trifluoromethoxy)-[1,1′-biphenyl]-3-yl)propyl)thieno [2,3-d]pyrimidin-4-amine] | 5.96
CCc1nc(NCCCc2cccc(-c3ccccc3)c2)c2cc(C)sc2n1 [Example 270, N-(3-([1,1′-biphenyl]-3-yl)propyl)-2-ethyl-6-methylthieno[2,3-d]pyrimidin-4-amine] | 6.28
CCc1nc(NCCCc2ccc(-c3ccncc3)cc2)c2cc(C)sc2n1 [Example 271, 2-ethyl-6-methyl-N-(3-(4-(pyridin-4-yl)phenyl)propyl) thieno[2,3-d]pyrimidin-4-amine] | 6.46
CCc1nc(NCCCc2ccc(-c3ccc(S(C)(=O)=O)cc3)cc2)c2cc(C)sc2n1 [Example 272, 2-ethyl-6-methyl-N-(3-(4′-(methylsulfonyl)-[1,1′-biphenyl]-4-yl)propyl)thieno [2,3-d]pyrimidin-4-amine] | 6.57
CCc1nc(NCCCc2ccc(-c3ccc(Cl)cc3)cc2)c2cc(C)sc2n1 [Example 273, N-(3-(4′-chloro-[1,1′-biphenyl]-4-yl)propyl)-2-ethyl-6-methylthieno[2,3-d]pyrimidin-4-amine] | 7.42
CCc1nc(NCCCc2ccc(-c3ccc(OC)cc3)cc2)c2cc(C)sc2n1 [Example 274, 2-ethyl-N-(3-(4′-methoxy-[1,1′-biphenyl]-4-yl)propyl)-6-methylthieno[2,3-d]pyrimidin-4-amine] | 7.12
CCc1nc(NCCCc2ccc(-c3cccnc3)cc2)c2cc(C)sc2n1 [Example 275, 2-ethyl-6-methyl-N-(3-(4-(pyridin-3-yl)phenyl)propyl) thieno[2,3-d]pyrimidin-4-amine] | 6.74
CCc1nc(NCCCc2ccc(-c3ccc(F)c(F)c3)cc2)c2cc(C)sc2n1 [Example 276, N-(3-(3′,4′-difluoro-[1,1′-biphenyl]-4-yl)propyl)-2-ethyl-6-methylthieno[2,3-d]pyrimidin-4-amine] | 6.03
CCc1nc(NCCCc2ccc(-c3ccc(NS(C)(=O)=O)cc3)cc2)c2cc(C)sc2n1 [Example 277, N-(4′-(3-((2-ethyl-6-methylthieno[2,3-d]pyrimidin-4-yl)amino)propyl)-[1,1′-biphenyl]-4-yl)methanesul-fonamide] | 6.20
CCc1nc(NCCCc2ccc(-c3ccc(=O)[nH]c3)cc2)c2cc(C)sc2n1 [Example 278, 5-(4-(3-((2-ethyl-6-methylthieno[2,3-d]pyrimidin-4-yl)amino)propyl)phenyl)pyridin-2(1H)-one] | 6.15
CCc1nc(NCCCc2ccc(-c3ccc(NC(C)=O)cc3)cc2)c2cc(C)sc2n1 [Example 279, N-(4′-(3-((2-ethyl-6-methylthieno[2,3-d]pyrimidin-4-yl)amino)propyl)-[1,1′-biphenyl]-4-yl)acetamide] | 5.96
CCc1nc(NCCCc2ccc(-c3cccc(OC(F)(F)F)c3)cc2)c2cc(C)sc2n1 [Example 280] | 6.85
